Measured values reported in PMC4882222 (Journal of medicinal chemistry, 2016).
Like-named read-outs stand apart in the source and are kept apart here.

What was measured:
[1] = molecular target: HIV RT-associated RNase H (Human immunodeficiency virus type 1 group M subtype B, UniProt P04585); type: biochemical, HIV-1
HIV integrase = HIV integrase (Human immunodeficiency virus type 1 group M subtype B, UniProt P04585); assay: HIV IN strand transfer assay; type: biochemical
HIV RT polymerase = HIV RT polymerase (Human immunodeficiency virus type 1 group M subtype B, UniProt P04585); assay: RT polymerase assay; type: biochemical, HIV-1
[2] = RNH IC50 HTS-2, HTS-2 substrate, measures DNA 3' end directed cleavage
[3] = RNH IC50 HTS-3, HTS-3 substrate, measures RNA 5' end directed cleavage
[4] = RT RNase H IC50, Table 4, data with HTS-1 as substrate

Structure (SMILES) | IC50 [1, 2] [µM] | IC50 [1, 3] [µM] | IC50 [1, 4] [µM] | IC50 (HIV integrase) [µM] | IC50 (HIV RT polymerase) [µM] | RT Pol IC50 (HIV RT polymerase; Table 1, poly(rA)-oligo(dT)16, [3H]-TTP) | IC50 (HIV RT polymerase; read-out: RT Pol IC50, Table 4) [µM]
O=C(O)c1c[nH]cc(O)c1=O [10a, 5-Hydroxy-4-oxo-1,4-dihydropyridine-3-carboxylic acid] | > 25 | > 25 | > 25 | > 100 | > 25 | no inhibitory activity | > 25
O=C(O)c1cn(Cc2ccc(Cl)c(Cl)c2)cc(O)c1=O [10i, 1-(3,4-Dichlorobenzyl)-5-hydroxy-4-oxo-1,4-dihydropyridine-3-carboxylic acid] | > 25 | > 25 | – | – | > 25 | – | > 25
O=C(O)c1cn(Cc2ccc(F)cc2)cc(O)c1=O [10d, 1-(4-Fluorobenzyl)-5-hydroxy-4-oxo-1,4-dihydropyridine-3-carboxylic acid] | > 25 | > 25 | – | – | > 25 | – | > 25
O=C(O)c1cn(-c2ccccc2)cc(O)c1=O [10b, 5-Hydroxy-4-oxo-1-phenyl-1,4-dihydropyridine-3-carboxylic acid] | > 25 | > 25 | > 25 | – | > 25 | – | > 25
O=C(O)c1cn(Cc2ccc(Br)cc2)cc(O)c1=O [10l, 1-(4-Bromobenzyl)-5-hydroxy-4-oxo-1,4-dihydropyridine-3-carboxylic acid] | > 25 | > 25 | > 25 | > 100 | > 25 | – | > 25
O=C(O)c1ccc(Cn2cc(O)c(=O)c(C(=O)O)c2)cc1 [10p, 1-(4-Carboxybenzyl)-5-hydroxy-4-oxo-1,4-dihydropyridine-3-carboxylic acid] | > 25 | > 25 | > 25 | – | > 25 | – | > 25
O=C(O)c1cn(Cc2ccc(F)cc2F)cc(O)c1=O [10g, 1-(2,4-Difluorobenzyl)-5-hydroxy-4-oxo-1,4-dihydropyridine-3-carboxylic acid] | > 25 | > 25 | – | > 100 | > 25 | – | > 25
NS(=O)(=O)c1ccc(-c2ccc(Cn3cc(O)c(=O)c(C(=O)O)c3)cc2)cc1 [10y, 5-Hydroxy-4-oxo-1-((4'-sulfamoyl-[1,1'-biphenyl]-4-yl)methyl)-1,4-dihydropyridine-3-carboxylic acid] | – | – | – | > 100 | – | – | –
O=C(O)c1cn(Cc2ccc(F)c(Cl)c2)cc(O)c1=O [10k, 1-(3-Chloro-4-fluorobenzyl)-5-hydroxy-4-oxo-1,4-dihydropyridine-3-carboxylic acid] | > 25 | > 25 | – | – | > 25 | – | > 25
O=C(O)c1cn(Cc2ccccc2)cc(O)c1=O [10c, 1-Benzyl-5-hydroxy-4-oxo-1,4-dihydropyridine-3-carboxylic acid] | > 25 | > 25 | > 25 | – | > 25 | – | > 25
CC(c1ccc(F)cc1)n1cc(O)c(=O)c(C(=O)O)c1 (centres unmarked) [10e, 1-(1-(4-Fluorophenyl)ethyl)-5-hydroxy-4-oxo-1,4-dihydropyridine-3-carboxylic acid] | > 25 | > 25 | – | – | > 25 | – | > 25
O=C(O)c1cn(Cc2ccc(Cl)cc2Cl)cc(O)c1=O [10j, 1-(2,4-Dichlorobenzyl)-5-hydroxy-4-oxo-1,4-dihydropyridine-3-carboxylic acid] | > 25 | > 25 | – | – | > 25 | – | > 25
Cc1cc(Cn2cc(O)c(=O)c(C(=O)O)c2)ccc1F [10f, 1-(4-Fluoro-3-methylbenzyl)-5-hydroxy-4-oxo-1,4-dihydropyridine-3-carboxylic acid] | > 25 | > 25 | – | > 100 | > 25 | – | > 25
CCOC(=O)c1cn(Cc2ccc(F)cc2)cc(O)c1=O [compound 18, Ethyl-1-(4-fluorobenzyl)-5-hydroxy-4-oxo-1,4-dihydropyridine-3-carboxylate] | > 25 | > 25 | > 25 | > 100 | > 25 | – | > 25
O=C(O)c1cn(Cc2ccncc2)cc(O)c1=O [10n, 5-Hydroxy-4-oxo-1-(pyridin-4-ylmethyl)-1,4-dihydropyridine-3-carboxylic acid] | > 25 | > 25 | > 25 | > 100 | > 25 | – | > 25
NC(=O)c1cn(Cc2ccc(F)cc2)cc(O)c1=O [compound 20, 1-(4-Fluorobenzyl)-5-hydroxy-4-oxo-1,4-dihydropyridine-3-carboxamide] | > 25 | > 25 | – | – | > 25 | – | > 25
CS(=O)(=O)c1ccc(Cn2cc(O)c(=O)c(C(=O)O)c2)cc1 [10o, 5-Hydroxy-1-(4-(methylsulfonyl)benzyl)-4-oxo-1,4-dihydropyridine-3-carboxylic acid] | > 25 | > 25 | > 25 | – | > 25 | – | > 25
